Type in all cases: cell-based
In one assay the test system is Cryptococcus neoformans. Kind of assay: In vitro antifungal activity, MIC by serial agar dilution method. The conditions noted are these: Sabouraud dextrose agar, 10^6 cells/ml, 40 hours at 28° C. The method, then: (§1) Antifungal activities of representative compounds of the present invention were evaluation in vitro. The minimum inhibitory concentrations (MICs) against various fungi were determined by serial agar dilution method using Sabouraud dextrose agar. Thus, approximately 0.003 ml of fungal suspension containing 10^6 cells/ml was applied to the surface of agar plates containing the test antibiotics.
A general note: In agar dilution, organisms are placed on agar that contains the substance at set levels.

The test system of another assay is Candida albicans. Described as above. The conditions noted are these: Sabouraud dextrose agar, 10^6 cells/ml, 40 hours at 28° C. The method, then: as §1
A further assay relates to Aspergillus fumigatus. Described as above. The conditions noted are these: Sabouraud dextrose agar, 10^6 cells/ml, 40 hours at 28° C. The method, then: as §1
For assay [1], the system named is Trichophyton mentagrophytes. The assay is described as above. Particulars: Sabouraud dextrose agar, 10^6 cells/ml, 40 hours at 28° C. The method, then:
as §1

Another assay has as its system fungi. Kind of assay: Antifungal activity of synthesized pradimicin A compared with naturally occurring pradimicin A. Particulars: semisynthetic product of Example 12 vs naturally occurring pradimicin A.

The values that follow come from US5326867A, “Pradimic acids, amides, and pradimicin derivatives” (Bristol-Myers Squibb Company, priority 1992, dated 1994).

Molecules are shown by their SMILES. ≈ marks a conversion by molar mass, not a printed value.

The MIC is the lowest concentration found to suppress growth. The low end stands for inhibition by little substance, the high end for a need for much substance.

As for `CN[C@@H]1[C@H](O[C@@H]2OC[C@@H](O)[C@H](O)[C@H]2O)[C@@H](O)[C@H](O[C@H]2c3cc(C)c(C(=O)N[C@H](Cc4ccc(O)c(O)c4)C(=O)O)c(O)c3-c3c(cc4c(c3O)C(=O)c3cc(OC)cc(O)c3C4=O)[C@@H]2O)O[C@@H]1C` [Example 13, 15-Desalanyl-15-[D-(3,4-dihydroxyphenyl)alanyl] pradimicin A], the MIC against Cryptococcus neoformans is 25 mg/L (≈ 26.3 µM); in the assay on Candida albicans, more than 50 mg/L; against Aspergillus fumigatus, more than 50 mg/L; in assay [1] it was 50 mg/L (≈ 52.7 µM).
Turning to `CN[C@@H]1[C@H](O[C@@H]2OC[C@@H](O)[C@H](O)[C@H]2O)[C@@H](O)[C@H](O[C@H]2c3cc(C)c(C(=O)N[C@@H](CO)C(=O)O)c(O)c3-c3c(cc4c(c3O)C(=O)c3cc(OC)cc(O)c3C4=O)[C@@H]2O)O[C@@H]1C` [Example 14], the MIC was 12.5 mg/L (≈ 14.6 µM) in the assay with Cryptococcus neoformans, 12.5 mg/L (≈ 14.6 µM) with Candida albicans, more than 100 mg/L with Aspergillus fumigatus and more than 100 mg/L in assay [1].
Consider `CN[C@@H]1[C@H](O[C@@H]2OC[C@@H](O)[C@H](O)[C@H]2O)[C@@H](O)[C@H](O[C@H]2c3cc(C)c(C(=O)N[C@H](CN)C(=O)O)c(O)c3-c3c(cc4c(c3O)C(=O)c3cc(OC)cc(O)c3C4=O)[C@@H]2O)O[C@@H]1C` [Example 15], for which the MIC against Cryptococcus neoformans was 6.3 mg/L (≈ 7.36 µM); in the assay with Candida albicans, 25 mg/L (≈ 29.2 µM); against Aspergillus fumigatus, 6.3 mg/L (≈ 7.36 µM); in assay [1] it was 6.3 mg/L (≈ 7.36 µM).
As for `CN[C@@H]1[C@H](O[C@@H]2OC[C@@H](O)[C@H](O)[C@H]2O)[C@@H](O)[C@H](O[C@H]2c3cc(C)c(C(=O)N[C@H](CC(=O)O)C(=O)O)c(O)c3-c3c(cc4c(c3O)C(=O)c3cc(OC)cc(O)c3C4=O)[C@@H]2O)O[C@@H]1C` [Example 16], the MIC against Cryptococcus neoformans was found to be 6.3 mg/L (≈ 7.12 µM); in the assay with Candida albicans, 12.5 mg/L (≈ 14.1 µM); in the assay on Aspergillus fumigatus, 50 mg/L (≈ 56.5 µM); in assay [1] it was 12.5 mg/L (≈ 14.1 µM).
Consider `CN[C@@H]1[C@H](O[C@@H]2OC[C@@H](O)[C@H](O)[C@H]2O)[C@@H](O)[C@H](O[C@H]2c3cc(C)c(C(=O)NC(C(=O)O)C(F)(F)F)c(O)c3-c3c(cc4c(c3O)C(=O)c3cc(OC)cc(O)c3C4=O)[C@@H]2O)O[C@@H]1C` (stereo partly drawn) [Example 17], for which the MIC in the assay with Cryptococcus neoformans is 3.1 mg/L (≈ 3.46 µM); against Candida albicans, more than 100 mg/L; against Aspergillus fumigatus, 50 mg/L (≈ 55.9 µM); in assay [1] it was more than 100 mg/L.
For `CN[C@@H]1[C@H](O[C@@H]2OC[C@@H](O)[C@H](O)[C@H]2O)[C@@H](O)[C@H](O[C@H]2c3cc(C)c(C(=O)N[C@H](Cc4ccccc4)C(=O)O)c(O)c3-c3c(cc4c(c3O)C(=O)c3cc(OC)cc(O)c3C4=O)[C@@H]2O)O[C@@H]1C` [Example 18], the MIC is 1.6 mg/L (≈ 1.75 µM) with Cryptococcus neoformans, more than 100 mg/L with Candida albicans, 6.3 mg/L (≈ 6.87 µM) in the assay with Aspergillus fumigatus and 12.5 mg/L (≈ 13.6 µM) in assay [1].
As for `CN[C@@H]1[C@H](O[C@@H]2OC[C@@H](O)[C@H](O)[C@H]2O)[C@@H](O)[C@H](O[C@H]2c3cc(C)c(C(=O)N[C@H](Cc4cnc[nH]4)C(=O)O)c(O)c3-c3c(cc4c(c3O)C(=O)c3cc(OC)cc(O)c3C4=O)[C@@H]2O)O[C@@H]1C` [Example 19], the MIC in the assay on Cryptococcus neoformans was 12.5 mg/L (≈ 13.8 µM); against Candida albicans, more than 50 mg/L; in the assay on Aspergillus fumigatus, 50 mg/L (≈ 55.1 µM); in assay [1] it was 12.5 mg/L (≈ 13.8 µM).
Turning to `CN[C@@H]1[C@H](O[C@@H]2OC[C@@H](O)[C@H](O)[C@H]2O)[C@@H](O)[C@H](O[C@H]2c3cc(C)c(C(=O)NCc4nnn[nH]4)c(O)c3-c3c(cc4c(c3O)C(=O)c3cc(OC)cc(O)c3C4=O)[C@@H]2O)O[C@@H]1C` [Example 20], the MIC with Cryptococcus neoformans stood at 3.1 mg/L (≈ 3.64 µM); in the assay with Candida albicans, 6.3 mg/L (≈ 7.4 µM); with Aspergillus fumigatus, 3.1 mg/L (≈ 3.64 µM); in assay [1] it was 3.1 mg/L (≈ 3.64 µM).
Turning to `CN[C@@H]1[C@H](O[C@@H]2OC[C@@H](O)[C@H](O)[C@H]2O)[C@@H](O)[C@H](O[C@H]2c3cc(C)c(C(=O)N[C@H](CCCCN)C(=O)O)c(O)c3-c3c(cc4c(c3O)C(=O)c3cc(OC)cc(O)c3C4=O)[C@@H]2O)O[C@@H]1C` [Example 21], the MIC was 6.3 mg/L (≈ 7.02 µM) against Cryptococcus neoformans, 25 mg/L (≈ 27.8 µM) against Candida albicans, 6.3 mg/L (≈ 7.02 µM) against Aspergillus fumigatus and 6.3 mg/L (≈ 7.02 µM) in assay [1].
As to `CCNC(=O)SC[C@@H](NC(=O)c1c(C)cc2c(c1O)-c1c(cc3c(c1O)C(=O)c1cc(OC)cc(O)c1C3=O)[C@H](O)[C@H]2O[C@@H]1O[C@H](C)[C@H](NC)[C@H](O[C@@H]2OC[C@@H](O)[C@H](O)[C@H]2O)[C@H]1O)C(=O)O` [Example 23], the MIC against Cryptococcus neoformans came to 3.1 mg/L (≈ 3.28 µM); with Candida albicans, 25 mg/L (≈ 26.5 µM); in the assay with Aspergillus fumigatus, 3.1 mg/L (≈ 3.28 µM); in assay [1], 12.5 mg/L (≈ 13.2 µM).
On to `COc1cc(O)c2c(c1)C(=O)c1c(cc3c(c1O)-c1c(cc(C)c(C(=O)N[C@@H](C(=O)O)[C@H](C)O)c1O)[C@H](O[C@@H]1O[C@H](C)[C@H](O)[C@H](O[C@@H]4OC[C@@H](O)[C@H](O)[C@H]4O)[C@H]1O)[C@H]3O)C2=O` [Example 27, 15-Desalanyl-15-(D-threonyl) -4'-desmethylamino-4'-hydroxypradimicin A], for which the MIC was found to be 6.3 mg/L (≈ 7.34 µM) in the assay on Cryptococcus neoformans, 12.5 mg/L (≈ 14.6 µM) against Candida albicans, 12.5 mg/L (≈ 14.6 µM) in the assay on Aspergillus fumigatus and 12.5 mg/L (≈ 14.6 µM) in assay [1].
For the compound `COc1cc(O)c2c(c1)C(=O)c1c(cc3c(c1O)-c1c(cc(C)c(C(=O)N[C@H](CSSC[C@@H](N)C(=O)O)C(=O)O)c1O)[C@H](O[C@@H]1O[C@H](C)[C@H](O)[C@H](O[C@@H]4OC[C@@H](O)[C@H](O)[C@H]4O)[C@H]1O)[C@H]3O)C2=O` [Example 29], the MIC in the assay with Cryptococcus neoformans worked out at 3.1 mg/L (≈ 3.17 µM); against Candida albicans, 6.3 mg/L (≈ 6.44 µM); in the assay on Aspergillus fumigatus, 6.3 mg/L (≈ 6.44 µM); in assay [1], 12.5 mg/L (≈ 12.8 µM).
In the case of `COc1cc(O)c2c(c1)C(=O)c1c(cc3c(c1O)-c1c(cc(C)c(C(=O)N[C@@H](CO)C(=O)O)c1O)[C@H](O[C@@H]1O[C@H](C)[C@H](O)[C@H](O[C@@H]4OC[C@@H](O)[C@H](O)[C@H]4O)[C@H]1O)[C@H]3O)C2=O` [Example 30], the MIC against Cryptococcus neoformans is 50 mg/L (≈ 59.3 µM); against Candida albicans it was 12.5 mg/L (≈ 14.8 µM); against Aspergillus fumigatus, more than 100 mg/L; in assay [1], more than 100 mg/L.
Consider `COc1cc(O)c2c(c1)C(=O)c1c(cc3c(c1O)-c1c(cc(C)c(C(=O)N[C@H](C)C(=O)O)c1O)[C@H](O[C@@H]1O[C@H](C)[C@H](O)[C@H](O[C@@H]4OC[C@@H](O)[C@H](O)[C@H]4O)[C@H]1O)[C@H]3O)C2=O` [Example 31], for which the MIC in the assay on Cryptococcus neoformans worked out at 3.1 mg/L (≈ 3.75 µM); against Candida albicans, 6.3 mg/L (≈ 7.61 µM); in the assay on Aspergillus fumigatus, 3.1 mg/L (≈ 3.75 µM); in assay [1], 3.1 mg/L (≈ 3.75 µM).
Turning to `CN[C@@H]1[C@H](O[C@@H]2OC[C@@H](O)[C@H](O)[C@H]2O)[C@@H](O)[C@H](O[C@H]2c3cc(C)c(C(=O)N[C@H](C)C(=O)O)c(O)c3-c3c(cc4c(c3O)C(=O)c3cc(OC)cc(O)c3C4=O)[C@@H]2O)O[C@@H]1C` [pradimicin A], the antifungal activity result in the assay on fungi is “identical to naturally occurring pradimicin A in spectroscopic data (NMR, IR, UV), HPLC and antifungal activity”.
